These results are taken from patent US20060074079A1, “Solid pharmaceutical formulations comprising Diacereine and Meloxicam” (Leopoldo Espinosa Abdala, priority 2004, published 2006).

The test system of data set [1] is Interleukin-1 beta production in human monocytes. Particulars: human monocytes in vitro (Berdah et al., 1993); cited from earlier work.
Data set [2] has as its system gout arthritis induced by intra-articular uric acid. The data set is described as follows: Pain Induced Functional Impairment model in the Rat (PIFIR), analgesic activity. The data set is classed as in vivo, male Wistar rats. Particulars: oral, single doses, rats with gout arthritis, FIG. 1.
Protocol: The experiments were carried out using male Wistar rats having a body weight between 180 and 200 g. […] The number of test animals was taken to the minimal (6 animals for each experimental aspect). Animals were kept in a room with light/darkness cycles. Rats were fastened twelve hours prior the beginning of experiments, leaving only free access to water. All the experiments were run during the light phase, using the animals only once.
The evaluation of analgesic effects was carried out using the Pain Induced Functional Impairment model in the Rat (PIFIR) model. Animals were anesthetized in a glass desiccator saturated with ether vapors. Gout arthritis was induced, upon application of a intra-articular injection of 0.05 ml of uric acid suspended in mineral oil, in the right-side hind leg, exactly in the femoral-tibio-patellar joint. […] Variable measured was contact time of each hind leg of every rat in the cylinder.
Rats were administered with each of the compounds orally. […] This period of time (2.5 hours after administration of uric acid) was considered as time “0”, in order to administer in this point of time the antinociceptive or analgesic treatment and the temporary course of each treatment were determined during the following 4 continuous hours. […]
Data are expressed as Percentage of Functionality Index (FI %). […]
The conditions of data set [3]: clinical trials, administered to 2 years; cited from earlier work.
The test system of data set [4] is cyclooxygenase (COX) from kidney or platelet. Particulars: from kidney or platelet (LaVilla et al., 1989); cited from earlier work.

As to `O=C(O)c1cc(O)c2c(c1)C(=O)c1cccc(O)c1C2=O` [reine, Reine], the Interleukin-1 beta production entry in data set [1] is on record as “inhibit”.
On to `CC(=O)Oc1cccc2c1C(=O)c1c(OC(C)=O)cc(C(=O)O)cc1C2=O` [Diacereine, 1,8-diacetoxy-3-carboxy-anthraquinone], for which, in data set [1], the Interleukin-1 beta production entry was “inhibit”. Further, the “TC efficacy (analgesic effect, FI % temporal course)” value in data set [2] is “unable to generate analgesic effects”. Moreover, the “safety on long-term administration” value in data set [3] is “without having safety problems”. Further, the “activity of cyclooxygenase (COX)” value in data set [4] is given as “does not disrupt”.
